pIC50: −log10 of the molar value. Values joined by “and” are separate entries in the source; they are usually repeats but may differ in a detail not shown here. Equal values may be shown once. Blank lines part the entries; values can stand above or below the molecule they belong to.
Tested on: K98450-129-R-PDC complex spheroid growth, percent test/control
Experiment: Anticancer human tumor K98450-129-R-PDC patient-derived colon adenocarcinoma cell line growth inhibition [RAS]
Conditions: for viability, T/C: stronger effect = lower value
Source text: RAS pathway inhibitors in Combinations in Complex Spheroids
A high-throughput screen of multi-cell type tumor spheroids was designed to identify active combinations of RAS pathway inhibitors and targeted small molecules. Complex spheroids include a stromal component modeled by human endothelial cells (HUVEC) and fibroblasts modeled by human mesenchymal stem cells (MSCs). The concentration ranges selected for each drug and investigational agent were based upon clinically achievable concentrations if the clinical Cmax of the agent was known.
Compounds. The drugs and investigational agents: abemaciclib (NSC768073), cobimetinib (NSC768068), divarasib (GDC6063, NSC841802), docetaxel (NSC628503), GDC-1971 (RLY-1971, NSC841576), gemcitabine (NSC613327), inavolisib (NSC800729), ipatasertib (NSC767898), KB-0742 (NSC834161), MRTX-1133 (NSC836407), osimertinib (NSC779217), RMC-4630 (NSC839698), RMC-6236 (NSC851965), RMC-6291 (NSC852671), Ro-3306 (NSC812927), sapanisertib (NSC764658), SN-38 (NSC673596), staurosporine (NSC755774), SY5609 (NSC837396), and tovorafenib (DAY101, NSC766906), were obtained from the National Cancer Institute (NCI) Developmental Therapeutics Program Chemical Repository. The FDA-approved anticancer drug set is available from the NCI Developmental Therapeutics Program. […] The stock solutions were prepared in dimethyl sulfoxide (DMSO, Sigma-Aldrich, St. Louis, MO, cat. D2650) at 800-fold the tested concentration and stored at -70 degrees C prior to their use. All drugs and investigational agents were tested over a range starting from a high concentration at or near the clinical Cmax and decreasing in half-log increments. If the clinical Cmax for an agent had not been determined, the highest concentration tested was 10 microM.
Cell Culture. All cells were maintained in an incubator at 37 degrees C and 5% CO2 with 95% humidity. The PDC lines were cultured according to standard operating procedures established by the NCI PDMR. All PDCs were thawed and cultured in Matrigel-coated flasks prepared with a working solution of 1X Ham's F-12 nutrient mix, without supplementation (Invitrogen, Waltham, MA, cat. 11765054), 100 U/mL penicillin-streptomycin (Invitrogen, cat. 15140122), and 2.5% Matrigel (Corning Inc., Corning, NY, cat. 354248) for the first three passages. The 362531-283-R-J2-PDC and 782815-120-R-J1-PDC lines were cultured in 6C/Colon 1B media, which includes advanced DMEM/F-12 (Thermo Fisher Scientific, cat. 12634028), 10 mM HEPES (Thermo Fisher Scientific, cat. 15630080), 1X GlutaMAX supplement (Thermo Fisher Scientific, cat. 35050061), 0.1 mg/mL primocin (InvivoGen, San Diego, CA, cat. ant-pm-2), 10% defined fetal bovine serum, heat inactivated (HyClone Laboratories Inc., Logan, UT, cat. SH30070.03HI), 50% L-WRN conditioned media (ATCC, cat. CRL-3276), 1.25 mM N-Acetyl-L-cysteine (Sigma-Aldrich, cat. A9165), 10 mM nicotinamide (Sigma-Aldrich, cat. N0636), 1X B-27 supplement (Thermo Fisher Scientific, cat. 17504044), 1X N-2 supplement (Thermo Fisher Scientific, cat. 17502048), 50 ng/mL human EGF (Thermo Fisher Scientific, cat. PHG0311), and 10 microM Y-27632 dihydrochloride (Tocris Bioscience, cat. 1254). The K12877-001-R-J1-PDC line was cultured in 6I media, which includes all 6C/Colon 1B media plus 10 ng/mL human FGF-10 (PeproTech, cat. 100-26), 1 ng/mL human FGF-2 (PeproTech, cat. 100-18B), 1 µM prostaglandin E2 (Tocris Bioscience, cat. 2296), […] hydrocortisone (Sigma-Aldrich, cat. H4001), and […] bovine insulin (Sigma-Aldrich, cat. I6634). The K86415-001-R-J1-PDC line was cultured in 6D media, which includes all 6C/Colon 1B media components minus the L-WRN conditioned media. The 485176-168-R4-J1-PDC was cultured in PANC media, which includes all 6C/Colon 1B media plus 100 ng/mL human FGF-10 (PeproTech, cat. 100-26), 500 nM SB-431542 (Selleckchem, cat. S1067), and 10 nM gastrin (Tocris Bioscience, cat. 3006). […]

[1] = compound alone, run of 06/10/2024
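Further: spheroids exposed to agents for seven days before the viability readout.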
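Wherever viability, T/C is given: luminescence used as a proxy for viable cell amount.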

Compound: C=CC(=O)Nc1cc(Nc2nccc(-c3cn(C)c4ccccc34)n2)c(OC)cc1N(C)CCN(C)C
- viability, T/C (compound 0.00316 µM): 102% (2×) and 95.4% and 104%
- viability, T/C (compound 0.01 µM): 96.2% [middle of 4 runs]
- viability, T/C (compound 0.1 µM): 100% [middle of 4 runs]
- viability, T/C (compound 0.316 µM): 70.7% [middle of 4 runs]
- viability, T/C (compound 1 µM): 36% [middle of 4 runs]
- IC50 (curve of compound): 633 nM [middle of 4 runs]

Compound: CC(C)n1nc(-c2ccc3oc(N)nc3c2)c2c(N)ncnc21
- viability, T/C (compound 0.000316 µM): 106% [middle of 4 runs]
- viability, T/C (compound 0.001 µM): 90.9% [middle of 4 runs]
- viability, T/C (compound 0.00316 µM): 93.6% [middle of 4 runs]
- viability, T/C (compound 0.01 µM): 96.8% [middle of 4 runs]
- viability, T/C (compound 0.0316 µM): 79.8% [middle of 4 runs]
- viability, T/C (compound 0.1 µM): 78.4% (2×) and 86.4% and 72.6%
- pIC50 (curve of compound): < 7.00

Compound: CC(Nc1ccc2c(c1)OCCn1cc(N3C(=O)OCC3C(F)F)nc1-2)C(N)=O (stereo not drawn)
- viability, T/C (compound 0.0316 µM): 99.5% [middle of 4 runs]
- viability, T/C (compound 0.1 µM): 91.6% [middle of 4 runs]
- viability, T/C (compound 0.316 µM): 91.2% [middle of 4 runs]
- viability, T/C (compound 1 µM): 88.9% [middle of 4 runs]
- viability, T/C (compound 3.16 µM): 81.3% [middle of 4 runs]
- viability, T/C (compound 10 µM): 73.7% [middle of 4 runs]
- pIC50 (curve of compound): < 5.00

Compound: CCc1c2c(nc3ccc(O)cc13)-c1cc3c(c(=O)n1C2)COC(=O)[C@]3(O)CC
- viability, T/C (compound 0.000949 µM): 104% [middle of 4 runs]
- viability, T/C (compound 0.003 µM): 97.8% [middle of 4 runs]
- viability, T/C (compound 0.00949 µM): 92.5% [middle of 4 runs]
- viability, T/C (compound 0.03 µM): 69% [middle of 4 runs]
- viability, T/C (compound 0.3 µM): 49.5% [middle of 4 runs]
- pIC50 (curve of compound): 7.31 and < 6.52 and 7.37

Compound: CCn1c(-c2cccnc2C(C)OC)c2c3cc(ccc31)N1CCOC(CC(NC(=O)C(C(C)C)N(C)C(=O)C3(F)CCN(C(=O)C#CC(C)(C)N(C)C)CC3)C(=O)N3CCCC(N3)C(=O)OCC(C)(C)C2)C1 (stereo not drawn)
- viability, T/C (compound 0.000949 µM): 78.5% [middle of 8 runs]
- viability, T/C (compound 0.003 µM): 63.4% [middle of 8 runs]
- viability, T/C (compound 0.00949 µM): 47.8% [middle of 8 runs]
- viability, T/C (compound 0.03 µM): 43.1% [middle of 8 runs]
- viability, T/C (compound 0.0949 µM): 41.6% [middle of 8 runs]
- viability, T/C (compound 0.3 µM): 35.3% [middle of 8 runs]

Compound: Nc1ccn(C2OC(CO)C(O)C2(F)F)c(=O)n1 (stereo not drawn)
- viability, T/C (compound 0.00316 µM): 80.7% and 103% (2×) and 107%
- viability, T/C (compound 0.01 µM): 96.2% [middle of 4 runs]
- viability, T/C (compound 0.0316 µM): 78.8% [middle of 4 runs]
- viability, T/C (compound 1 µM): 49.4% [middle of 4 runs]

The next lines start with results.

- pIC50 [1]: < 5.00
Compound: C#Cc1c(F)ccc2cc(O)cc(-c3ncc4c(N5CC6CCC(C5)N6)nc(OCC56CCCN5CC(F)C6)nc4c3F)c12 (stereo not drawn)
- viability, T/C (compound 0.0316 µM): 106% [middle of 8 runs]
- viability, T/C (compound 0.1 µM): 105% [middle of 7 runs]
- viability, T/C (compound 0.316 µM): 105% [middle of 8 runs]
- viability, T/C (compound 1 µM): 102% [middle of 8 runs]
- viability, T/C (compound 3.16 µM): 102% [middle of 8 runs]
- viability, T/C (compound 10 µM): 95.1% [middle of 8 runs]

- IC50 [1]: 148 nM [middle of 8 runs]
- IC50 (curve of compound): 144 nM [middle of 4 runs]
Compound: C=CC(=O)N1CCN(c2nc(OCC3CCCN3C)nc3c(F)c(-c4nc(N)cc(C)c4C(F)(F)F)c(Cl)cc23)C(C)C1 (stereo not drawn)
- viability, T/C (compound 0.00316 µM): 97.9% [middle of 12 runs]
- viability, T/C (compound 0.01 µM, compound 0.0316 µM): 70.9%
- viability, T/C (compound 0.01 µM, compound 0.1 µM): 59.3%
- viability, T/C (compound 0.01 µM, compound 0.316 µM): 39.6%
- viability, T/C (compound 0.01 µM, compound 1 µM): 29%
- viability, T/C (compound 0.0316 µM, compound 0.00316 µM): 71.2%
- viability, T/C (compound 0.0316 µM, compound 0.01 µM): 65.5%
- viability, T/C (compound 0.0316 µM, compound 0.1 µM): 51.4%
- viability, T/C (compound 0.0316 µM, compound 0.316 µM): 42.2%
- viability, T/C (compound 0.0316 µM, compound 1 µM): 28.1%
- viability, T/C (compound 0.0316 µM): 71.5% [middle of 13 runs]
- viability, T/C (compound 0.1 µM, compound 0.00316 µM): 54.4%
- viability, T/C (compound 0.1 µM, compound 0.01 µM): 52.5%
- viability, T/C (compound 0.1 µM, compound 0.0316 µM): 56.5%
- viability, T/C (compound 0.1 µM, compound 0.316 µM): 41.4%
- viability, T/C (compound 0.1 µM, compound 1 µM): 30.8%
- viability, T/C (compound 0.1 µM): 53.1% [middle of 13 runs]
- viability, T/C (compound 0.316 µM, compound 0.00316 µM): 40.9%
- viability, T/C (compound 0.316 µM, compound 0.01 µM): 38.6%
- viability, T/C (compound 0.316 µM, compound 0.0316 µM): 43.2%
- viability, T/C (compound 0.316 µM, compound 0.1 µM): 38.7%
- viability, T/C (compound 0.316 µM, compound 1 µM): 31.3%
- viability, T/C (compound 0.316 µM): 40.2% [middle of 13 runs]
- viability, T/C (compound 1 µM, compound 0.00316 µM): 31.1%
- viability, T/C (compound 1 µM, compound 0.01 µM): 35.5%
- viability, T/C (compound 1 µM, compound 0.0316 µM): 31.5%
- viability, T/C (compound 1 µM, compound 0.1 µM): 30.9%
- viability, T/C (compound 1 µM, compound 0.316 µM): 33.1%
- viability, T/C (compound 1 µM): 34% [middle of 13 runs]

- pIC50 (curve of compound): < 6.52
Compound: CC1(C)CCC(Nc2ncc(C(F)(F)F)c(-c3c[nH]c4c(P(C)(C)=O)c(C#N)ccc34)n2)CN1 (stereo not drawn)
- viability, T/C (compound 0.000949 µM): 105% [middle of 4 runs]
- viability, T/C (compound 0.003 µM): 105% (2×) and 98.6% and 96.4%
- viability, T/C (compound 0.00949 µM): 106% [middle of 4 runs]
- viability, T/C (compound 0.03 µM): 107% (2×) and 109% and 99.9%
- viability, T/C (compound 0.0949 µM): 94.4% [middle of 4 runs]
- viability, T/C (compound 0.3 µM): 86.1% [middle of 4 runs]

- pIC50 (curve of compound): < 6.00
Compound: CCN1CCN(Cc2ccc(Nc3ncc(F)c(-c4cc(F)c5nc(C)n(C(C)C)c5c4)n3)nc2)CC1
- viability, T/C (compound 0.00316 µM): 103% [middle of 4 runs]
- viability, T/C (compound 0.01 µM): 99.4% [middle of 4 runs]
- viability, T/C (compound 0.0316 µM): 96.8% [middle of 4 runs]
- viability, T/C (compound 0.1 µM): 97.3% [middle of 4 runs]

- IC50 (compound alone, run of 05/20/2024): 35 nM [middle of 8 runs]
Compound: CCn1c(-c2cc(N3CCN(C)CC3)cnc2C(C)OC)c2c3cc(ccc31)-c1csc(n1)CC(NC(=O)C1CC1C)C(=O)N1CCCC(N1)C(=O)OCC(C)(C)C2 (stereo not drawn)
- viability, T/C (compound 0.000949 µM): 93.1% [middle of 8 runs]
- viability, T/C (compound 0.003 µM): 86.4% [middle of 8 runs]
- viability, T/C (compound 0.03 µM): 56.8% [middle of 8 runs]
- viability, T/C (compound 0.0949 µM): 23.6% [middle of 8 runs]
- viability, T/C (compound 0.3 µM): 14.1% [middle of 8 runs]

- IC50 (curve of compound): 190 nM [middle of 4 runs]
Compound: O=C(c1ccc(F)c(F)c1Nc1ccc(I)cc1F)N1CC(O)([C@@H]2CCCCN2)C1
- viability, T/C (compound 0.00316 µM): 103% [middle of 4 runs]
- viability, T/C (compound 0.0316 µM): 97.5% [middle of 4 runs]
- viability, T/C (compound 0.1 µM): 82.3% [middle of 4 runs]
- viability, T/C (compound 0.316 µM): 21.8% [middle of 4 runs]
- viability, T/C (compound 1 µM): 3.22% [middle of 4 runs]

Source: PubChem BioAssay AID2060891 (Molecular Pharmacology Branch, DTP, NCI, 2025)
